Patent publication US20160106802A1, “METHODS OF DIAGNOSING AND TREATING ASTHMA” (Alba Therapeutics Corporation, priority 2006, published 2016)
“Also recorded” adds a separate entry of the source. Ends that are not written are not given here.

Tested on: zonulin receptor
Experiment: In situ immunofluorescence microscopy of lung tissue sections with FITC-labeled peptides
Assay type: binding
Conditions: mouse lung sections (4 μm, frozen blocks) incubated with FITC-labeled peptide; FIG. 1
Protocol: In situ immunofluorescence microscopy was used to establish the distribution of the zonulin receptor within the respiratory tract. Lung tissue sections (4 μm) made from frozen blocks were placed immediately on plain uncoated slides and incubated with either FITC-labeled FZI/0 (the zonulin synthetic peptide inhibitor that specifically binds to the zonulin receptor described in U.S. Pat. No. 6,458,925, Gly-Gly-Val-Leu-Val-Gln-Pro-Gly SEQ ID NO: 15) or FITC-labeled FZI/1 (a scrambled peptide described in U.S. Pat. No. 6,458,925, Val-Gly-Val-Leu-Gly-Arg-Pro-Gly SEQ ID NO: 25) The results are shown in FIG. 1.

| Sequence | immunofluorescence signal of FITC-labeled peptide bound to lung tissue sections |
| --- | --- |
| GGVLVQPG [FZI/0] | Clusters of immunofluorescent FZI/0 particles were visualized; also recorded: Cluster of immunofluorescence FZI/0 particles were visualized |
| VGVLGRPG [FZI/1, a scrambled peptide described in U.S. Pat. No. 6,458,925, reference compound] | no signal was detected |
